# Data: ChEMBL document CHEMBL3244399, “Antifungal agents. 4. Chemical modification of antibiotics from Polyangium cellulosum var. fulvum. Ester and amide analogues of ambruticin” (1979)
# Active and inactive are the calls of the source. The rule behind the calls is not given here.
# Tests used:
# Histoplasma capsulatum = assay: Antifungal activity against Histoplasma capsulatum assessed as growth inhibition by standard broth dilution method; assay type: functional
# [1] = Antifungal activity against Microsporum fulvum assessed as growth inhibition by standard broth dilution method; assay type: functional; conditions: Arthroderma fulvum
# Candida albicans = assay: Antifungal activity against Candida albicans assessed as growth inhibition by standard broth dilution method; assay type: functional, organism-based
# Streptococcus pyogenes = assay: Antifungal activity against Streptococcus pyogenes assessed as growth inhibition by standard broth dilution method; assay type: functional
SMILES,MIC (Histoplasma capsulatum) [µg/mL],MIC [1] [µg/mL],inhibition (Candida albicans),MIC (Streptococcus pyogenes)
CC[C@H]1O[C@@H](/C(C)=C/[C@H](C)/C=C/[C@H]2[C@@H](C)[C@@H]2/C=C/[C@@H]2O[C@H](CC(=O)NC3CCCCC3)C[C@H](O)[C@H]2O)CC=C1C,3.12,25,inactive,–
CCC(=O)O[C@H]1[C@H](/C=C/[C@H]2[C@H](C)[C@@H]2/C=C/[C@@H](C)/C=C(\C)[C@H]2CC=C(C)[C@@H](CC)O2)O[C@H](CC(=O)O)C[C@@H]1OC(=O)CC,6.25,> 50,inactive,6.25 µg/mL
CC[C@H]1O[C@@H](/C(C)=C/[C@H](C)/C=C/[C@H]2[C@@H](C)[C@@H]2/C=C/[C@@H]2O[C@H](CC(=O)N3CCCC3)C[C@H](O)[C@H]2O)CC=C1C,0.39,0.78,inactive,3.12 µg/mL
CC[C@H]1O[C@@H](/C(C)=C/[C@H](C)/C=C/[C@H]2[C@@H](C)[C@@H]2/C=C/[C@@H]2O[C@H](CC(=O)OC)C[C@H](OC=O)[C@H]2OC=O)CC=C1C,3.12,12.5,inactive,inactive
CC[C@H]1O[C@@H](/C(C)=C/[C@H](C)/C=C/[C@H]2[C@@H](C)[C@@H]2/C=C/[C@@H]2O[C@H](CC(=O)N3CCCCC3)C[C@H](O)[C@H]2O)CC=C1C,3.12,0.78,inactive,1.56 µg/mL
CC[C@H]1O[C@@H](/C(C)=C/[C@H](C)/C=C/[C@H]2[C@@H](C)[C@@H]2/C=C/[C@@H]2O[C@H](CC(=O)N(C(=O)NC3CCCCC3)C3CCCCC3)C[C@H](O)[C@H]2O)CC=C1C,> 50,> 50,inactive,inactive
CCCCNC(=O)C[C@@H]1C[C@H](O)[C@@H](O)[C@H](/C=C/[C@H]2[C@H](C)[C@@H]2/C=C/[C@@H](C)/C=C(\C)[C@H]2CC=C(C)[C@@H](CC)O2)O1,1.56,6.25,inactive,1.56 µg/mL
CC[C@H]1O[C@@H](/C(C)=C/[C@H](C)/C=C/[C@H]2[C@@H](C)[C@@H]2/C=C/[C@@H]2O[C@H](CC(=O)O)C[C@H](OC(C)=O)[C@H]2OC(C)=O)CC=C1C (relative stereo),3.12,3.12,inactive,6.25 µg/mL
CC[C@H]1O[C@@H](/C(C)=C/[C@H](C)/C=C/[C@H]2[C@@H](C)[C@@H]2/C=C/[C@@H]2O[C@H](CC(=O)OC)C[C@@H]3OC(=O)O[C@@H]23)CC=C1C (relative stereo),0.78,0.39,inactive,inactive
CC[C@H]1O[C@@H](/C(C)=C/[C@H](C)/C=C/[C@H]2[C@@H](C)[C@@H]2/C=C/[C@@H]2O[C@H](CC(=O)N3CCCCC3)C[C@H](OC(C)=O)[C@H]2OC(C)=O)CC=C1C,–,–,inactive,–
CC[C@H]1O[C@@H](/C(C)=C/[C@H](C)/C=C/[C@H]2[C@@H](C)[C@@H]2/C=C/[C@@H]2O[C@H](CC(=O)OC)C[C@H](OC(=O)Nc3ccc(Cl)cc3)[C@H]2OC(=O)Nc2ccc(Cl)cc2)CC=C1C,50,> 50,inactive,inactive
CC[C@H]1O[C@@H](/C(C)=C/[C@H](C)/C=C/[C@H]2[C@@H](C)[C@@H]2/C=C/[C@@H]2O[C@H](CC(=O)OC)C[C@H](OC(=O)Nc3ccccc3)[C@H]2OC(=O)Nc2ccccc2)CC=C1C,25,> 50,inactive,inactive
CCCC(=O)O[C@H]1[C@H](/C=C/[C@H]2[C@H](C)[C@@H]2/C=C/[C@@H](C)/C=C(\C)[C@H]2CC=C(C)[C@@H](CC)O2)O[C@H](CC(=O)O)C[C@@H]1OC(=O)CCC,12.5,> 50,inactive,6.25 µg/mL
CC[C@H]1O[C@@H](/C(C)=C/[C@H](C)/C=C/[C@H]2[C@@H](C)[C@@H]2/C=C/[C@@H]2O[C@H](CC(=O)OC)C[C@H](O)[C@H]2O)CC=C1C (relative stereo),0.39,0.39,inactive,inactive
CC[C@H]1O[C@@H](/C(C)=C/[C@H](C)/C=C/[C@H]2[C@@H](C)[C@@H]2/C=C/[C@@H]2O[C@H](CC(=O)O)C[C@H](OC=O)[C@H]2OC=O)CC=C1C,1.56,1.56,inactive,25 µg/mL
CC[C@H]1O[C@@H](/C(C)=C/[C@H](C)/C=C/[C@H]2[C@@H](C)[C@@H]2/C=C/[C@@H]2O[C@H](CC(=O)NCc3ccccc3)C[C@H](O)[C@H]2O)CC=C1C,6.25,> 50,inactive,3.12 µg/mL
CCCCNC(=O)C[C@@H]1C[C@H](OC(C)=O)[C@@H](OC(C)=O)[C@H](/C=C/[C@H]2[C@H](C)[C@@H]2/C=C/[C@@H](C)/C=C(\C)[C@H]2CC=C(C)[C@@H](CC)O2)O1,–,–,inactive,–
CC[C@H]1O[C@@H](/C(C)=C/[C@H](C)/C=C/[C@H]2[C@@H](C)[C@@H]2/C=C/[C@@H]2O[C@H](CC(=O)N(C(=O)NC3CCCCC3)C3CCCCC3)C[C@H](OC(C)=O)[C@H]2OC(C)=O)CC=C1C,> 50,> 50,inactive,inactive
CC[C@H]1O[C@@H](/C(C)=C/[C@H](C)/C=C/[C@H]2[C@@H](C)[C@@H]2/C=C/[C@@H]2O[C@H](CC(=O)N3CCCC3)C[C@H](OC(C)=O)[C@H]2OC(C)=O)CC=C1C,50,> 50,inactive,inactive
CC[C@H]1O[C@@H](/C(C)=C/[C@H](C)/C=C/[C@H]2[C@@H](C)[C@@H]2/C=C/[C@@H]2O[C@H](CC(=O)O)C[C@H](O)[C@H]2O)CC=C1C (relative stereo) [AMBRUTICIN],0.195,0.098,inactive,25 µg/mL
CC[C@H]1O[C@@H](/C(C)=C/[C@H](C)/C=C/[C@H]2[C@@H](C)[C@@H]2/C=C/[C@@H]2O[C@H](CC(=O)OC)C[C@H](OC(C)=O)[C@H]2OC(C)=O)CC=C1C (relative stereo),12.5,> 50,inactive,inactive
CC[C@H]1O[C@@H](/C(C)=C/[C@H](C)/C=C/[C@H]2[C@@H](C)[C@@H]2/C=C/[C@@H]2O[C@H](CC(=O)NCc3ccccc3)C[C@H](OC(C)=O)[C@H]2OC(C)=O)CC=C1C,–,–,inactive,–
CC[C@H]1O[C@@H](/C(C)=C/[C@H](C)/C=C/[C@H]2[C@@H](C)[C@@H]2/C=C/[C@@H]2O[C@H](CC(=O)NC3CCCCC3)C[C@H](OC(C)=O)[C@H]2OC(C)=O)CC=C1C,> 50,> 50,inactive,inactive
